# Laboratory results as given in ChEMBL document CHEMBL1201862, “PubChem BioAssay data set” (2004).
#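 A five-concentration, 48-hour dose response in 96-well plates underlies each endpoint, interpolated linearly between surrounding concentrations. GI50: concentration for 50% inhibition of growth.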 Activity calls are given as the source filed them. Rule as the data show it: active = GI50 up to about 1.1 µM and inactive = higher.
# Legend:
# Experiment in all cases: inhibition of tumour cell growth, NCI panel, 48 h
# COLO 205 = test system: COLO 205
# SK-MEL-5 = test system: SK-MEL-5
# SNB-19 = test system: SNB-19
# SF-539 = test system: SF-539
# UACC-257 = test system: UACC-257
# EKVX = test system: EKVX
# MOLT-4 = test system: MOLT-4
# OVCAR-3 = test system: OVCAR-3
# SN12C = test system: SN12C
# T47D = test system: T47D
# RXF 393 = test system: RXF 393
# NCI-H460 = test system: NCI-H460
# UO-31 = test system: UO-31
# OVCAR-5 = test system: OVCAR-5
# A498 = test system: A498
# NCI-H226 = test system: NCI-H226
# RPMI-8226 = test system: RPMI-8226
# CAKI-1 = test system: CAKI-1
# SF-295 = test system: SF-295
# HOP-62 = test system: HOP-62
# SK-OV-3 = test system: SK-OV-3
# HOP-92 = test system: HOP-92
# MDA-N = test system: MDA-N
# MCF7 = test system: MCF7
# HL-60 = test system: HL-60
# NCI-H23 = test system: NCI-H23
# HCC 2998 = test system: HCC 2998
# SF-268 = test system: SF-268
# SK-MEL-28 = test system: SK-MEL-28
# MDA-MB-435 = test system: MDA-MB-435
# SW-620 = test system: SW-620
# NCI/ADR-RES = test system: NCI/ADR-RES
# K562 = test system: K562
# OVCAR-4 = test system: OVCAR-4
# CCRF-CEM = test system: CCRF-CEM
# HCT-116 = test system: HCT-116
# DU-145 = test system: DU-145
# Malme-3M = test system: Malme-3M
# UACC-62 = test system: UACC-62
# Hs-578T = test system: Hs-578T
# HCT-15 = test system: HCT-15
# PC-3 = test system: PC-3
# ACHN = test system: ACHN
# SK-MEL-2 = test system: SK-MEL-2
# IGROV-1 = test system: IGROV-1
# SNB-75 = test system: SNB-75
# M14 = test system: M14
# HT-29 = test system: HT-29
# A549 = test system: A549
# 786-0 = test system: 786-0
# MDA-MB-231 = test system: MDA-MB-231
# KM12 = test system: KM12
# NCI-H522 = test system: NCI-H522
# TK-10 = test system: TK-10
# U-251 = test system: U-251
# OVCAR-8 = test system: OVCAR-8
# LOX IMVI = test system: LOX IMVI
structure (smiles),measurement,setting,value
CC1(C)SCc2nc3ccccc3n21,GI50,COLO 205,> 100 µM (inactive)
same,GI50,SK-MEL-5,> 100 µM (inactive)
same,GI50,SNB-19,> 100 µM (inactive)
same,GI50,SF-539,> 100 µM (inactive)
same,GI50,UACC-257,> 100 µM (inactive)
same,GI50,EKVX,> 100 µM (inactive)
same,GI50,MOLT-4,> 100 µM (inactive)
same,GI50,OVCAR-3,> 100 µM (inactive)
same,GI50,SN12C,> 100 µM (inactive)
same,GI50,T47D,> 100 µM (inactive)
same,GI50,RXF 393,> 100 µM (inactive)
same,GI50,NCI-H460,> 100 µM (inactive)
same,GI50,UO-31,> 100 µM (inactive)
same,GI50,OVCAR-5,> 100 µM (inactive)
same,GI50,A498,> 100 µM (inactive)
same,GI50,NCI-H226,89.9 µM (inactive)
same,GI50,RPMI-8226,> 100 µM (inactive)
same,GI50,CAKI-1,> 100 µM (inactive)
same,GI50,SF-295,> 100 µM (inactive)
same,GI50,HOP-62,> 100 µM (inactive)
same,GI50,SK-OV-3,> 100 µM (inactive)
same,GI50,HOP-92,> 100 µM (inactive)
same,GI50,MDA-N,> 100 µM (inactive)
same,GI50,MCF7,> 100 µM (inactive)
same,GI50,HL-60,> 100 µM (inactive)
same,GI50,NCI-H23,> 100 µM (inactive)
same,GI50,HCC 2998,> 100 µM (inactive)
same,GI50,SF-268,> 100 µM (inactive)
same,GI50,SK-MEL-28,> 100 µM (inactive)
same,GI50,MDA-MB-435,> 100 µM (inactive)
same,GI50,SW-620,> 100 µM (inactive)
same,GI50,NCI/ADR-RES,> 100 µM (inactive)
same,GI50,K562,> 100 µM (inactive)
same,GI50,OVCAR-4,> 100 µM (inactive)
same,GI50,CCRF-CEM,> 100 µM (inactive)
same,GI50,HCT-116,> 100 µM (inactive)
same,GI50,DU-145,> 100 µM (inactive)
same,GI50,Malme-3M,> 100 µM (inactive)
same,GI50,UACC-62,> 100 µM (inactive)
same,GI50,Hs-578T,> 100 µM (inactive)
same,GI50,HCT-15,> 100 µM
same,GI50,PC-3,> 100 µM (inactive)
same,GI50,ACHN,> 100 µM (inactive)
same,GI50,SK-MEL-2,> 100 µM (inactive)
same,GI50,IGROV-1,> 100 µM (inactive)
same,GI50,SNB-75,0.0119 µM (active)
same,GI50,M14,> 100 µM (inactive)
same,GI50,HT-29,> 100 µM (inactive)
same,GI50,A549,> 100 µM (inactive)
same,GI50,786-0,> 100 µM (inactive)
same,GI50,MDA-MB-231,> 100 µM (inactive)
same,GI50,KM12,> 100 µM (inactive)
same,GI50,NCI-H522,> 100 µM (inactive)
same,GI50,TK-10,> 100 µM (inactive)
same,GI50,U-251,> 100 µM (inactive)
same,GI50,OVCAR-8,> 100 µM (inactive)
same,GI50,LOX IMVI,> 100 µM (inactive)
O=C1C=CC2(C=C1)CCNC1=C2C(=O)c2[nH]cnc2C1=O,GI50,SNB-19,13.9 µM (inactive)
same,GI50,Malme-3M,2.26 µM (inactive)
same,GI50,IGROV-1,15.2 µM (inactive)
CC(=O)/N=S(/NC(=O)c1ccc(C)cc1)C(Cl)(Cl)Cl (stereo not given),GI50,COLO 205,19.8 µM (inactive)
same,GI50,SK-MEL-5,33.3 µM (inactive)
same,GI50,SNB-19,94.8 µM (inactive)
same,GI50,SF-539,77.1 µM (inactive)
same,GI50,UACC-257,44 µM (inactive)
same,GI50,EKVX,44.5 µM (inactive)
same,GI50,MOLT-4,25.1 µM (inactive)
same,GI50,OVCAR-3,20.9 µM (inactive)
same,GI50,SN12C,37.9 µM (inactive)
same,GI50,T47D,34.3 µM (inactive)
same,GI50,RXF 393,44.6 µM (inactive)
same,GI50,NCI-H460,38.5 µM (inactive)
same,GI50,UO-31,26.1 µM (inactive)
same,GI50,OVCAR-5,36.2 µM (inactive)
same,GI50,NCI-H226,> 100 µM (inactive)
same,GI50,RPMI-8226,74.3 µM (inactive)
same,GI50,SF-295,> 100 µM (inactive)
same,GI50,HOP-62,56.4 µM (inactive)
same,GI50,SK-OV-3,70 µM (inactive)
same,GI50,HOP-92,> 100 µM (inactive)
same,GI50,MDA-N,55.6 µM (inactive)
same,GI50,MCF7,51.9 µM (inactive)
same,GI50,HL-60,0.226 µM (active)
same,GI50,NCI-H23,24.1 µM (inactive)
same,GI50,HCC 2998,15.1 µM (inactive)
same,GI50,SF-268,97.1 µM (inactive)
same,GI50,SK-MEL-28,46.7 µM (inactive)
same,GI50,MDA-MB-435,19.1 µM (inactive)
same,GI50,SW-620,15.8 µM (inactive)
same,GI50,NCI/ADR-RES,20.4 µM (inactive)
same,GI50,K562,23.9 µM (inactive)
same,GI50,OVCAR-4,31.2 µM (inactive)
same,GI50,CCRF-CEM,18.6 µM (inactive)
same,GI50,HCT-116,31 µM (inactive)
same,GI50,DU-145,> 100 µM (inactive)
same,GI50,Malme-3M,29.6 µM (inactive)
same,GI50,UACC-62,99.3 µM (inactive)
same,GI50,Hs-578T,59.3 µM (inactive)
same,GI50,HCT-15,42.8 µM
same,GI50,PC-3,> 100 µM (inactive)
same,GI50,ACHN,41 µM (inactive)
same,GI50,IGROV-1,38.6 µM (inactive)
same,GI50,SNB-75,45.3 µM (inactive)
same,GI50,M14,15.7 µM (inactive)
same,GI50,HT-29,23.6 µM (inactive)
same,GI50,A549,> 100 µM (inactive)
same,GI50,786-0,18 µM (inactive)
same,GI50,MDA-MB-231,26.2 µM (inactive)
same,GI50,KM12,> 100 µM (inactive)
same,GI50,TK-10,> 100 µM (inactive)
same,GI50,U-251,22 µM (inactive)
same,GI50,OVCAR-8,15.6 µM (inactive)
same,GI50,LOX IMVI,29.7 µM (inactive)
O=C1Cc2c([nH]c3ccc(Cl)cc23)-c2ccccc2N1,GI50,COLO 205,> 100 µM (inactive)
same,GI50,SK-MEL-5,> 100 µM (inactive)
same,GI50,SNB-19,> 100 µM (inactive)
same,GI50,SN12C,> 100 µM (inactive)
same,GI50,T47D,> 100 µM (inactive)
same,GI50,NCI-H460,> 100 µM (inactive)
same,GI50,UO-31,> 100 µM (inactive)
same,GI50,A498,> 100 µM (inactive)
same,GI50,NCI-H226,> 100 µM (inactive)
same,GI50,RPMI-8226,> 100 µM (inactive)
same,GI50,SF-295,> 100 µM (inactive)
same,GI50,SK-OV-3,> 100 µM (inactive)
same,GI50,HOP-92,> 100 µM (inactive)
same,GI50,MDA-N,> 100 µM (inactive)
same,GI50,MCF7,> 100 µM (inactive)
same,GI50,NCI-H23,> 100 µM (inactive)
same,GI50,SF-268,> 100 µM (inactive)
same,GI50,SK-MEL-28,> 100 µM (inactive)
same,GI50,MDA-MB-435,> 100 µM (inactive)
same,GI50,NCI/ADR-RES,> 100 µM (inactive)
same,GI50,OVCAR-4,> 100 µM (inactive)
same,GI50,HCT-116,3.17 µM (inactive)
same,GI50,Malme-3M,> 100 µM (inactive)
same,GI50,UACC-62,74.6 µM (inactive)
same,GI50,Hs-578T,> 100 µM (inactive)
same,GI50,ACHN,> 100 µM (inactive)
same,GI50,IGROV-1,> 100 µM (inactive)
same,GI50,SNB-75,> 100 µM (inactive)
same,GI50,M14,> 100 µM (inactive)
same,GI50,A549,> 100 µM (inactive)
same,GI50,786-0,> 100 µM (inactive)
same,GI50,MDA-MB-231,> 100 µM (inactive)
same,GI50,NCI-H522,> 100 µM (inactive)
same,GI50,TK-10,> 100 µM (inactive)
same,GI50,U-251,> 100 µM (inactive)
same,GI50,OVCAR-8,> 100 µM (inactive)
same,GI50,LOX IMVI,2.13 µM (inactive)
